This passage reports IC50 and melting point results from patent US20080108612A1, “Use of Purine Derivatives as HSP90 Protein Inhibitors” (AVENTIS PHARMA S.A., priority 2005, published 2008).

Molecules are shown by their SMILES. Where a name gives a salt, the structure may show the parent alone.

The target in the first series is Hsp82 (Saccharomyces cerevisiae, UniProt P02829). In words: Inhibition of the ATPase activity of Hsp82 in the enzymatic coupling system (pyruvate kinase / lactate dehydrogenase). It counts as biochemical.
Hsp82, sequence (P02829 whole entry): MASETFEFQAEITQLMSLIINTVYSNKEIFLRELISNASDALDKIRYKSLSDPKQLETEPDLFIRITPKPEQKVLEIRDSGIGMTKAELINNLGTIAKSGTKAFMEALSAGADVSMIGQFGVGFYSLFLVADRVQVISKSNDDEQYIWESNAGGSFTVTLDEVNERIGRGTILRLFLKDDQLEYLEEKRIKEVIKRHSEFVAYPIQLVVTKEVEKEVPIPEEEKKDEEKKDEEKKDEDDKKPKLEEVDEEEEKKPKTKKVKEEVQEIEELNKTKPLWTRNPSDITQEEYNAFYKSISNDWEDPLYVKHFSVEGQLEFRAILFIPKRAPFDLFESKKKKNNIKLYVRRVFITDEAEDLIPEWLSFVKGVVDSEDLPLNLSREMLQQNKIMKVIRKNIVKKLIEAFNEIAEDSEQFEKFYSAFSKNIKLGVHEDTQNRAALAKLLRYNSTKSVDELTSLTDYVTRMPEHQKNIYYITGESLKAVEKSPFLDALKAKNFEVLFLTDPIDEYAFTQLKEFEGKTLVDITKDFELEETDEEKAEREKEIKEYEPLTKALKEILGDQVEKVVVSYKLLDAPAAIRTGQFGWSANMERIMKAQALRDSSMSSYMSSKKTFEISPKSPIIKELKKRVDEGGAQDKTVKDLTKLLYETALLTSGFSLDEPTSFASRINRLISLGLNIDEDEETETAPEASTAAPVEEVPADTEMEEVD
Conditions: not given
The source says:
The formation of ADP due to the ATPase activity of Hsp82 was used to develop another method for evaluating the enzymatic activity of this enzyme by application of an enzymatic coupling system involving pyruvate kinase (PK) and lactate dehydrogenase (LDH). In this kinetic-type spectrophotometric method, the PK catalyzes the formation of ATP and of pyruvate from phosphoenol pyruvate (PEP) and from the ADP produced by Hsp82. The pyruvate formed, which is a substrate for LDH, is then converted to lactate in the presence of NADH. In this case, the decrease in NADH concentration, measured by the decrease in absorbance at the wavelength of 340 nm, is proportional to the concentration of ADP produced by Hsp82.
The products tested were incubated in a reaction volume of 100 μl of buffer composed of 100 mM Hepes-NaOH (pH 7.5), 5 mM MgCl2, 1 mM DTT, 150 mM KCl, 0.3 mM NADH, 2.5 mM PEP and 250 μM ATP. This mixture was preincubated at 37° C. for 30 min before adding 3.77 units of LDH and 3.77 units of PK. The reaction was initiated by addition of the product to be evaluated, in variable concentrations, and of Hsp82, at the concentration of 1 μM. Measurement of the enzymatic activity of Hsp82 was then carried out, continuously, in a microplate reader at 37° C., at the wavelength of 340 nm. The initial rate of the reaction was obtained by measuring the slope of the tangent at the origin of the curve recorded. The enzymatic activity was expressed in μM of ADP formed per minute. The effect of the various products tested was expressed as a percentage inhibition of the ATPase activity.
The inhibitory activities on the ATPase activity of Hsp82 obtained with the products of the invention in the enzymatic coupling system are given in the table below, according to the criteria below for inhibition of the ATPase activity of Hsp82: […]
For `CC(Nc1nc(Cl)nc2[nH]cnc12)c1ccccc1` (racemic) [Example 3, 2-chloro-6-(1(R,S)-phenylethyl)amino-1H-purine], the IC50 fell in the range of 10 to 100 µM.

The same series, now with this note: ATPase activity of Hsp82, PK/LDH enzymatic coupling system, 1 μM Hsp82, 250 μM ATP, 37° C., absorbance at 340 nm; read-out: IC50.
`Cl.c1ccc(CN2CCN(c3ncnc4[nH]cnc34)CC2)cc1` [Example 1]: the IC50 lay within 1 to 10 µM.
For the compound `Clc1nc(OCc2ccccc2)c2nc[nH]c2n1` [Example 2, 2-chloro-6-phenylmethyloxy-1H-purine], the IC50 lay within 10 to 100 µM.
On the same count and under the same terms, the result for `Clc1nc(NCCN2CCOCC2)c2nc[nH]c2n1` [Example 4, 2-chloro-6-[2-(morpholin-4-yl)ethylamino]-1H-purine] reads 10 to 100 µM; that for `c1csc(CNc2[nH]cnc3ncnc2-3)c1` [Example 5, 6-(thiophen-2-yl)methylamino-1H-purine], 10 to 100 µM.
Same read-out and setting: for `Clc1nc(NCCNCc2ccccc2)c2nc[nH]c2n1` [Example 6] the value was 10 to 100 µM; for `CCOC(=O)CC1CCN(c2ncnc3[nH]cnc23)CC1` [Example 8, 6-[4-(ethyloxycarbonyl)methylpiperidin-1-yl]-1H-purine], 10 to 100 µM.
The same measure, in the same setting: the result for `c1nc(N2CCCCC2)c2nc[nH]c2n1` [Example 9, 6-(piperidin-1-yl)-1H-purine] reads 1 to 10 µM; that for `c1ccc(N2CCN(c3ncnc4[nH]cnc34)CC2)nc1` [Example 10, 6-[4-(pyridin-2-yl)piperazinyl]-1-H-purine monohydrochloride], 1 to 10 µM.

System in the next series: not given
Experiment: not given
Conditions: not given
With `Cl.c1ccc(CN2CCN(c3ncnc4[nH]cnc34)CC2)cc1` [Example 1], the melting point lay within 258 to 260 °C.

The IC50 is the concentration at which inhibition is half-maximal. In general, melting point refers to the temperature of the solid-liquid transition.
